Measurements: patent US12371454B2, “Cyclic peptide compound having Kras inhibitory action” (priority 2019, dated 2025)
Starred links: 1 amine or outer side, 2 acyl side, 3 side chain; linkers in the order of their positions; H or OH if unused. Positions of bridges follow the written chain, without caps; N, C: chain ends. Non-standard residues stand in square brackets, D forms with d. Residues, ends and D or L forms follow the SMILES beside them. *: point of attachment. hPhe(3-Cl-4-CF3) = N[C@@H](CCc1ccc(C(F)(F)F)c(Cl)c1)C(=O)O; NMePhe(4-CF3) = CN[C@@H](Cc1ccc(C(F)(F)F)cc1)C(=O)O; hPhe(4-CF3) = N[C@@H](CCc1ccc(C(F)(F)F)cc1)C(=O)O; NMePhe(4-Cl) = CN[C@@H](Cc1ccc(Cl)cc1)C(=O)O; NMePhe(4-F) = CN[C@@H](Cc1ccc(F)cc1)C(=O)O; NMedβ3hAla = C[C@H](CC(=O)[*:2])N(C)[*:1]; Phe(3-Cl) = N[C@@H](Cc1cccc(Cl)c1)C(=O)O; NMeGly(cPent) = CN[C@H](C(=O)O)C1CCCC1; Phe(3-I) = N[C@@H](Cc1cccc(I)c1)C(=O)O; Phe(3-Me) = Cc1cccc(C[C@H](N)C(=O)O)c1; Pro(4,4-F2) = O=C(O)[C@@H]1CC(F)(F)CN1; NMeY = CN[C@@H](Cc1ccc(O)cc1)C(=O)O; NMeCha = CN[C@@H](CC1CCCCC1)C(=O)O; NMehLeu = CN[C@@H](CCC(C)C)C(=O)O; NMeChg = CN[C@H](C(=O)O)C1CCCCC1; NMeF = CN[C@@H](Cc1ccccc1)C(=O)O; NMeD = CN[C@@H](CC(=O)O)C(=O)O; NMeL = CN[C@@H](CC(C)C)C(=O)O; NMeV = CN[C@H](C(=O)O)C(C)C; d(β3hA) = C[C@@H](N)CC(=O)O; NMeS = CN[C@@H](CO)C(=O)O; NMeA = CN[C@@H](C)C(=O)O; Piperidide = C1CCN(*)CC1; Pyrrolidide = C1CCN(*)C1; dNMeA = CN[C@H](C)C(=O)O; Ac5c = NC1(C(=O)O)CCCC1; Aze = O=C(O)[C@@H]1CCN1; CH2CMe2OH = CC(C)(O)C*; Cyclobutyl = C1CC(*)C1; βAla = NCCC(=O)O; Sar = CNCC(=O)O

Target: T1, Kras and SOS1 (biotin-tagged human Kras loaded with GDP, His-tagged human SOS1) (Homo sapiens, UniProt P01116, G12D)
T1 construct: made in house; host or cells: E. coli (stated for Kras only)
Assay: Protein-protein interaction inhibition between Kras and SOS1 (KrasGl2D-SOS PPI) using AlphaScreen
Type: binding
Settings: AlphaScreen; biotin-tagged human Kras loaded with GDP, His-tagged human SOS1; read-out: KRAS G12D-SOS PPI IC50
Summary of the method: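 Kras was produced in E. coli, purified, then loaded with GDP. It was paired via streptavidin acceptor beads with His-SOS1 held on nickel donor beads, and proximity signal at 520-620 nm was read after 680 nm illumination.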

T1 sequence (P01116 1-188 isoform P01116-2 G12D): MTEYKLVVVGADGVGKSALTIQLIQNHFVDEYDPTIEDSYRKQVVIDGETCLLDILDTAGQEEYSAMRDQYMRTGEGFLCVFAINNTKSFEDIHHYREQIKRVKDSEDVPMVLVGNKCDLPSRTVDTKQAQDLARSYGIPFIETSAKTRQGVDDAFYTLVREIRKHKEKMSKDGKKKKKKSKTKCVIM

SMILES	IC50 [µM]
CC[C@H](C)[C@@H]1NC(=O)[C@H](C)N(C)C(=O)C[C@@H](C(=O)N2CCCC2)NC(=O)[C@H](CC(C)C)N(C)C(=O)[C@H](COCC(C)(C)O)N(C)C(=O)[C@H](CC(C)C)NC(=O)[C@H](CCc2ccc(C(F)(F)F)cc2)NC(=O)CN(C)C(=O)[C@H](Cc2ccc(Cl)cc2)N(C)C(=O)CN(C)C(=O)CN(C)C1=O [Compound 582] ([NMeA]I[Sar][Sar][NMePhe(4-Cl)][Sar][hPhe(4-CF3)]L[NMeS](CH2CMe2OH)[NMeL]D-Pyrrolidide; lactam N-11)	0.024
CC[C@H](C)[C@@H]1NC(=O)[C@H](C)N(C)C(=O)C[C@@H](C)NC(=O)[C@H](C2CCCC2)N(C)C(=O)C2(CCCC2)NC(=O)[C@@H]2CCCN2C(=O)[C@H](CCc2ccc(C(F)(F)F)c(Cl)c2)NC(=O)[C@@H](C)N(C)C(=O)[C@H](Cc2ccc(F)cc2)N(C)C(=O)[C@@H]2CCN2C(=O)[C@H](C)N(C)C1=O [Compound 584] (cyclo([Ac5c][NMeGly(cPent)][d(β3hA)][NMeA]I[NMeA][Aze][NMePhe(4-F)][dNMeA][hPhe(3-Cl-4-CF3)]P))	0.031
CC[C@H](C)[C@@H]1NC(=O)[C@H](CC(C)C)N(C)C(=O)C[C@@H](C(=O)N2CCCCC2)N(C)C(=O)[C@H](COC2CCC2)N(C)C(=O)C2(CCCC2)NC(=O)[C@@H]2CCCN2C(=O)[C@H](CCc2ccc(C(F)(F)F)c(Cl)c2)NC(=O)CN(C)C(=O)[C@H](CC2CCCCC2)N(C)C(=O)CN(C)C(=O)CN(C)C1=O [Compound 585] ([NMeL]I[Sar][Sar][NMeCha][Sar][hPhe(3-Cl-4-CF3)]P[Ac5c][NMeS](Cyclobutyl)[NMeD]-Piperidide; lactam N-11)	0.094
CC[C@H](C)[C@@H]1NC(=O)[C@H](CC(C)C)N(C)C(=O)C[C@@H](C)NC(=O)[C@H](CCC(C)C)N(C)C(=O)C2(CCCC2)NC(=O)[C@@H]2CCCN2C(=O)[C@H](CCc2ccc(C(F)(F)F)c(Cl)c2)NC(=O)CN(C)C(=O)[C@H](CC2CCCCC2)N(C)C(=O)CN(C)C(=O)CN(C)C1=O [Compound 586] (cyclo([Ac5c][NMehLeu][d(β3hA)][NMeL]I[Sar][Sar][NMeCha][Sar][hPhe(3-Cl-4-CF3)]P))	0.16
CC[C@H](C)[C@@H]1NC(=O)[C@H](CC(C)C)N(C)C(=O)C[C@@H](C(=O)N2CCCCC2)N(C)C(=O)[C@H](C2CCCCC2)N(C)C(=O)[C@H](C)NC(=O)[C@@H]2CCCN2C(=O)[C@H](CCc2ccc(C(F)(F)F)c(Cl)c2)NC(=O)CN(C)C(=O)[C@H](CC2CCCCC2)N(C)C(=O)CN(C)C(=O)CN(C)C1=O [Compound 591] ([NMeL]I[Sar][Sar][NMeCha][Sar][hPhe(3-Cl-4-CF3)]PA[NMeChg][NMeD]-Piperidide; lactam N-11)	0.0021
CC[C@H](C)[C@@H]1NC(=O)[C@H](CC(C)C)N(C)C(=O)C[C@@H](C)NC(=O)[C@H](C2CCCCC2)N(C)C(=O)C2(CCCC2)NC(=O)[C@@H]2CCCN2C(=O)[C@H](CCc2ccc(C(F)(F)F)c(Cl)c2)NC(=O)CN(C)C(=O)[C@H](CC2CCCCC2)N(C)C(=O)CN(C)C(=O)CN(C)C1=O [Compound 593] (cyclo([Ac5c][NMeChg][d(β3hA)][NMeL]I[Sar][Sar][NMeCha][Sar][hPhe(3-Cl-4-CF3)]P))	0.034
CC[C@H](C)[C@@H]1NC(=O)[C@H](C)N(C)C(=O)C[C@@H](C(=O)N2CCCC2)N(C)C(=O)[C@H](CC(C)C)NC(=O)[C@H](Cc2ccccc2)N(C)C(=O)[C@H](C)NC(=O)[C@H](Cc2cccc(I)c2)NC(=O)CN(C)C(=O)[C@H](Cc2ccc(OC)cc2)N(C)C(=O)[C@@H]2CCN2C(=O)[C@H](C)N(C)C1=O [Compound 604] ([NMeA]I[NMeA][Aze][NMeY](Me)[Sar][Phe(3-I)]A[NMeF]L[NMeD]-Pyrrolidide; lactam N-11)	0.016
CC[C@H](C)[C@@H]1NC(=O)CCNC(=O)[C@H](COCC(C)(C)O)N(C)C(=O)[C@H](C2CCCCC2)N(C)C(=O)C2(CCCC2)NC(=O)[C@@H]2CCCN2C(=O)[C@H](CCc2ccc(C(F)(F)F)c(Cl)c2)NC(=O)CN(C)C(=O)[C@H](CC2CCCCC2)N(C)C(=O)CN(C)C(=O)CN(C)C1=O [Compound 605] (cyclo([Ac5c][NMeChg][NMeS](CH2CMe2OH)[βAla]I[Sar][Sar][NMeCha][Sar][hPhe(3-Cl-4-CF3)]P))	0.009
CC[C@H](C)[C@@H]1NC(=O)[C@H](C)N(C)C(=O)C[C@@H](C(=O)N2CCCC2)NC(=O)[C@H](C(C)C)N(C)C(=O)[C@H](Cc2ccccc2)N(C)C(=O)[C@H](Cc2cccc(C)c2)NC(=O)[C@H](Cc2cccc(Cl)c2)NC(=O)CN(C)C(=O)[C@H](Cc2ccc(Cl)cc2)N(C)C(=O)CN(C)C(=O)CN(C)C1=O [Compound 609] ([NMeA]I[Sar][Sar][NMePhe(4-Cl)][Sar][Phe(3-Cl)][Phe(3-Me)][NMeF][NMeV]D-Pyrrolidide; lactam N-11)	0.11
CC[C@H](C)[C@@H]1NC(=O)[C@H](CC(C)C)N(C)C(=O)C[C@@H](C)N(C)C(=O)[C@H](C2CCCC2)N(C)C(=O)C2(CCCC2)NC(=O)[C@@H]2CC(F)(F)CN2C(=O)[C@H](CCc2ccc(C(F)(F)F)c(Cl)c2)NC(=O)CN(C)C(=O)[C@H](Cc2ccc(C(F)(F)F)cc2)N(C)C(=O)CN(C)C(=O)CN(C)C1=O [Compound 611] (cyclo([Ac5c][NMeGly(cPent)][NMedβ3hAla][NMeL]I[Sar][Sar][NMePhe(4-CF3)][Sar][hPhe(3-Cl-4-CF3)][Pro(4,4-F2)]))	0.0033
